Source: patent US20220062240A1, “METHODS OF TREATING CANCER USING A CLK INHIBITOR” (BioSplice Therapeutics, Inc., priority 2018, published 2022)
Like-named read-outs stand apart in the source and are kept apart here.

Columns and labels:
Assay type in all cases: cell-based
[1] = system: prostate cancer (5 cell lines); experiment: CellTiter-Glo Viability Assay, prostate cancer; conditions: Homo sapiens
Procedure: (§1) Fifty-one human cancer cell lines (breast cancer (8 cell lines), colorectal cancer (6 cell lines), haematopoietic & lymphoid tumors (13 cell lines), liver cancer (3 cell lines), lung cancer (4 cell lines), ovarian cancer (4 cell lines), pancreatic cancer (8 cell lines), and prostate cancer (5 cell lines)) were tested to determine the effects of representative compounds of Formulas (I)-(XII) on cellular proliferation, as evaluated using the CellTiter-Glo® Viability Assay.
(§2) For the Cell Viability Assays, cells were plated at 300-3,000 cells/well in 384-well plates in their respective media containing 1% Penicillin-Streptomycin and incubated for four days at 37° C. and 5% CO2. Twenty-eight replicates of DMSO-treated cells served as controls and cells treated with compound were performed in duplicate.
(§3) After incubation, 10 μL of CellTiter-Glo® (Promega) was added to each well allowed to incubate for approximately 12 minutes. This reagent results in cell lysis and generation of a luminescent signal proportional to the amount of ATP present. The amount of ATP is directly proportional to the number of metabolically active, viable cells present in culture. The CellTiter-Glo® Assay generates a luminescent signal, produced by the luciferase reaction (Promega.com).
(§4) After incubation, the luminescence signal was read using an EnVision™ Multilabel Plate Reader (Perkin Elmer). Dose-response curves were generated and EC50 concentration values were calculated using Dotmatics' Studies Software (Bishops Stortford, UK).

[2] = system: lung cancer (4 cell lines); experiment: CellTiter-Glo Viability Assay, lung cancer; conditions: Homo sapiens
Procedure: as §1, §2, §3, §4

[3] = system: pancreatic cancer (8 cell lines); experiment: CellTiter-Glo Viability Assay, pancreatic cancer; conditions: Homo sapiens
Procedure: as §1, §2, §3, §4

[4] = system: CAMA1; experiment: CellTiter-Glo Viability Assay, breast cancer; conditions: Homo sapiens, CAMA-1, 96 h
Procedure: as §1, §2, §3, §4

[5] = system: BT-549; experiment: CellTiter-Glo Viability Assay, breast cancer; conditions: Homo sapiens, BT-549, 96 h
Procedure: as §1, §2, §3, §4

[6] = system: DU4475; experiment: CellTiter-Glo Viability Assay, breast cancer; conditions: Homo sapiens, DU-4475, 96 h
Procedure: as §1, §2, §3, §4

[7] = system: MDA-MB-231-Luc; experiment: CellTiter-Glo Viability Assay, breast cancer; conditions: Homo sapiens, 96 h
Procedure: as §1, §2, §3, §4

[8] = system: HCC1599; experiment: CellTiter-Glo Viability Assay, breast cancer; conditions: Homo sapiens, HCC1599, 96 h
Procedure: as §1, §2, §3, §4

[9] = system: T47D; experiment: CellTiter-Glo Viability Assay, breast cancer; conditions: Homo sapiens, 96 h
Procedure: as §1, §2, §3, §4

[10] = system: ZR-75-1; experiment: CellTiter-Glo Viability Assay, breast cancer; conditions: Homo sapiens, ZR-75-1, 96 h
Procedure: as §1, §2, §3, §4

[11] = system: MCF7; experiment: CellTiter-Glo Viability Assay, breast cancer; conditions: Homo sapiens, MCF7, 96 h
Procedure: as §1, §2, §3, §4

[12] = system: ovarian cancer (4 cell lines); experiment: CellTiter-Glo Viability Assay, ovarian cancer; conditions: Homo sapiens
Procedure: as §1, §2, §3, §4

[13] = system: haematopoietic & lymphoid tumors (13 cell lines); experiment: CellTiter-Glo Viability Assay, haematopoietic & lymphoid tumors; conditions: Homo sapiens
Procedure: as §1, §2, §3, §4

[14] = system: colorectal cancer (6 cell lines); experiment: CellTiter-Glo Viability Assay, colorectal cancer; conditions: Homo sapiens
Procedure: as §1, §2, §3, §4

[15] = system: liver cancer (3 cell lines); experiment: CellTiter-Glo Viability Assay, liver cancer; conditions: Homo sapiens
Procedure: as §1, §2, §3, §4

Question: How did the EC50 ([1]; 22Rv1, read-out: Prostate cancer EC50 22Rv1) turn out when CN1CCN(c2cc(C(=O)Nc3cc4cc(-c5cnn(C)c5)ccc4cn3)ccn2)CC1 [Compound 12] was run?
Answer: The EC50 was 191 nM.

Question: And the EC50 ([1]; DU-145, read-out: Prostate cancer EC50 Du-145)?
Answer: The EC50 was 377 nM.

Question: And the EC50 ([1]; LNCaP-Clone-FGC, read-out: Prostate cancer EC50 LNCap clone FGC)?
Answer: The EC50 was 329 nM.

Question: What about the EC50 ([1]; PC-3, read-out: Prostate cancer EC50 PC3) of the same molecule?
Answer: The EC50 was 237 nM.

Question: And the EC50 ([1]; VCaP, read-out: Prostate cancer EC50 VCaP (Sigma))?
Answer: The EC50 was 462 nM.

Question: And the EC50 ([2]; A-427, read-out: Lung cancer, EC50 (μM) A427)?
Answer: Its EC50 is 0.277 µM.

Question: And the EC50 ([2]; HCC78, read-out: Lung cancer, EC50 (μM) HCC-78)?
Answer: The EC50 was 0.326 µM.

Question: What about the EC50 ([2]; NCI-H460, read-out: Lung cancer, EC50 (μM) NCI-H460) of the same molecule?
Answer: The EC50 was 0.261 µM.

Question: And the EC50 ([2]; NCI-H522, read-out: Lung cancer, EC50 (μM) NCI-H522)?
Answer: The EC50 was 0.133 µM.

Question: And the EC50 ([3]; BXPC-3, read-out: Pancreatic cancer, EC50 BxPC3)?
Answer: Its EC50 is 420 nM.

Question: What about the EC50 ([3]; CAPAN-1, read-out: Pancreatic cancer, EC50 Capan1) of the same molecule?
Answer: Its EC50 is 343 nM.

Question: What about the EC50 ([3]; Capan-2, read-out: Pancreatic cancer, EC50 Capan2) of the same molecule?
Answer: Its EC50 is 415 nM.

Question: What about the EC50 ([3]; MIA PaCa-2, read-out: Pancreatic cancer, EC50 MIA PaCa-2) of the same molecule?
Answer: Its EC50 is 131 nM.

Question: What about the EC50 ([3]; PANC-1, read-out: Pancreatic cancer, EC50 PANC-1) of the same molecule?
Answer: The EC50 was 294 nM.

Question: What about the EC50 ([3]; Panc 05.04, read-out: Pancreatic cancer, EC50 PANC 05.04) of the same molecule?
Answer: Its EC50 is 340 nM.

Question: And the EC50 ([3]; read-out: Pancreatic cancer, EC50 UPAFII)?
Answer: Its EC50 is 153 nM.

Question: What about the EC50 [4] of the same molecule?
Answer: Its EC50 is 347 nM.

Question: What about the EC50 [5] of the same molecule?
Answer: Its EC50 is 231 nM.

Question: And the EC50 [6]?
Answer: Its EC50 is 182 nM.

Question: What about the EC50 [7] of the same molecule?
Answer: Its EC50 is 304 nM.

Question: And the EC50 [8]?
Answer: Its EC50 is 103 nM.

Question: What about the EC50 [9] of the same molecule?
Answer: The EC50 was 427 nM.

Question: What about the EC50 [10] of the same molecule?
Answer: The EC50 was 361 nM.

Question: What about the EC50 [11] of the same molecule?
Answer: The EC50 was 600 nM.

Question: What about the EC50 ([12]; OV-90, read-out: Ovarian cancer, EC50 (μM) OV-90) of the same molecule?
Answer: Its EC50 is 0.456 µM.

Question: What about the EC50 ([12]; OVCAR-3, read-out: Ovarian cancer, EC50 (μM) OVCAR-3) of the same molecule?
Answer: The EC50 was 0.113 µM.

Question: What about the EC50 ([12]; PA-1, read-out: Ovarian cancer, EC50 (μM) PA1) of the same molecule?
Answer: The EC50 was 0.172 µM.

Question: And the EC50 ([12]; TOV112D, read-out: Ovarian cancer, EC50 (μM) TOV-112D)?
Answer: Its EC50 is 0.152 µM.

Question: What about the EC50 ([13]; DND41, read-out: Haematopoietic & Lymphoid tumors, EC50 (μM) DND-41) of the same molecule?
Answer: Its EC50 is 0.208 µM.

Question: What about the EC50 ([13]; HL-60, read-out: Haematopoietic & Lymphoid tumors, EC50 (μM) HL-60) of the same molecule?
Answer: Its EC50 is 0.518 µM.

Question: What about the EC50 ([13]; JM1, read-out: Haematopoietic & Lymphoid tumors, EC50 (μM) JM1) of the same molecule?
Answer: Its EC50 is 0.095 µM.

Question: What about the EC50 ([13]; JeKo-1, read-out: Haematopoietic & Lymphoid tumors, EC50 (μM) JeKo-1) of the same molecule?
Answer: The EC50 was 0.081 µM.

Question: What about the EC50 ([13]; Jurkat, read-out: Haematopoietic & Lymphoid tumors, EC50 (μM) JURKAT, Clone E6-1) of the same molecule?
Answer: The EC50 was 0.412 µM.

Question: What about the EC50 ([13]; Kasumi 1, read-out: Haematopoietic & Lymphoid tumors, EC50 (μM) KASUMI-1) of the same molecule?
Answer: The EC50 was 0.156 µM.

Question: And the EC50 ([13]; MOLT-4, read-out: Haematopoietic & Lymphoid tumors, EC50 (μM) MOLT-4)?
Answer: Its EC50 is 0.302 µM.

Question: And the EC50 ([13]; MV4-11, read-out: Haematopoietic & Lymphoid tumors, EC50 (μM) MV-4-11)?
Answer: The EC50 was 0.082 µM.

Question: And the EC50 ([13]; Rec1, read-out: Haematopoietic & Lymphoid tumors, EC50 (μM) REC-1)?
Answer: Its EC50 is 0.075 µM.

Question: What about the EC50 ([13]; SU-DHL-4, read-out: Haematopoietic & Lymphoid tumors, EC50 (μM) SUDHL4) of the same molecule?
Answer: Its EC50 is 0.335 µM.

Question: What about the EC50 ([13]; TF-1, read-out: Haematopoietic & Lymphoid tumors, EC50 (μM) TF-1) of the same molecule?
Answer: Its EC50 is 0.386 µM.

Question: And the EC50 ([13]; Toledo, read-out: Haematopoietic & Lymphoid tumors, EC50 (μM) TOLEDO)?
Answer: Its EC50 is 0.101 µM.

Question: And the EC50 ([13]; read-out: Haematopoietic & Lymphoid tumors, EC50 (μM) Loucy)?
Answer: The EC50 was 0.155 µM.

Question: And the EC50 ([14]; DLD-1, read-out: Colorectal cancer, EC50 (μM) DLD-1)?
Answer: The EC50 was 0.183 µM.

Question: And the EC50 ([14]; HCT-116, read-out: Colorectal cancer, EC50 (μM) HCT116)?
Answer: Its EC50 is 0.138 µM.

Question: And the EC50 ([14]; HT-29, read-out: Colorectal cancer, EC50 (μM) HT29)?
Answer: Its EC50 is 0.291 µM.

Question: And the EC50 ([14]; SW48, read-out: Colorectal cancer, EC50 (μM) SW48)?
Answer: Its EC50 is 0.09 µM.

Question: And the EC50 ([14]; SW480, read-out: Colorectal cancer, EC50 (μM) SW480)?
Answer: The EC50 was 0.159 µM.

Question: And the EC50 ([14]; SW-620, read-out: Colorectal cancer, EC50 (μM) SW620)?
Answer: The EC50 was 0.114 µM.

Question: And the EC50 ([15]; HepG2, read-out: Liver cancer, EC50 HEPG2)?
Answer: Its EC50 is 309 nM.

Question: What about the EC50 ([15]; PLC-PRF-5, read-out: Liver cancer, EC50 PLC/PRF/5) of the same molecule?
Answer: Its EC50 is 465 nM.

Question: And the EC50 ([15]; SNU-398, read-out: Liver cancer, EC50 SNU398)?
Answer: Its EC50 is 62 nM.
